Test results from ChEMBL document CHEMBL1681726, “Discovery of orally available tetrahydroquinoline-based glucocorticoid receptor agonists” (Bioorg Med Chem Lett, 2011).

Experiments:
[1] = Metabolic stability in CD-1 […] liver microsomes by HPLC-MS/MS; assay type: ADME, Microsome; settings: CD-1, liver microsomes
[2] = Metabolic stability in human liver microsomes by HPLC-MS/MS; assay type: ADME, Microsome
[3] = target: T1, Glucocorticoid receptor (Homo sapiens, UniProt P04150); assay: Agonist activity at GR expressed in african green monkey CV1 cells transfected with luciferase gene linked to MMTV promoter assessed as induction of luciferase transactivation activity relative to Dexamethasone; assay type: functional, cell-based, CV-1
T1 sequence (P04150 whole entry): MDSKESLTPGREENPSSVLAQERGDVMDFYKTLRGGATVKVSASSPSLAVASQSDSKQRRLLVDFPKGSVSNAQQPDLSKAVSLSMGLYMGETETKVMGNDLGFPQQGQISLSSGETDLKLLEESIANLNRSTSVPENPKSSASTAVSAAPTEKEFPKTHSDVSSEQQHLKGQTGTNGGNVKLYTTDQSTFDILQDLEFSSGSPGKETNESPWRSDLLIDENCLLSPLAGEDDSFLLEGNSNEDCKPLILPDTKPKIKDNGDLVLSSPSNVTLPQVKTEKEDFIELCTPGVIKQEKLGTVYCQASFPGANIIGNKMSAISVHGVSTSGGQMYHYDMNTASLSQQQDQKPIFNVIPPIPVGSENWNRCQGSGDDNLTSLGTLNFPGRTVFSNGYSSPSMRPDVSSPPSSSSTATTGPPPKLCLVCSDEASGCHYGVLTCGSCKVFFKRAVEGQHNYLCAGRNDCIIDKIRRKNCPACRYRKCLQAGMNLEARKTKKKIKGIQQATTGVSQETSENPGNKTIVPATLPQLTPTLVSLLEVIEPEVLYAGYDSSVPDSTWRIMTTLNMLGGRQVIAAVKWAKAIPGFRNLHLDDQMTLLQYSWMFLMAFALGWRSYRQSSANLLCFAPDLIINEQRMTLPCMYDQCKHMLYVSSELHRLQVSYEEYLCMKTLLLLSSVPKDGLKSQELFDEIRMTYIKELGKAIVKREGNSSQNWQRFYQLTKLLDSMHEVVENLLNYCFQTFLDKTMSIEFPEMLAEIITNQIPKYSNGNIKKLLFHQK

[4] = target: T1, Glucocorticoid receptor; assay: Displacement of radiolabeled Dexamethasone from GR
[5] = target: T1, Glucocorticoid receptor; assay: Agonist activity at GR expressed in IL-1beta- and TNFalpha-stimulated HepG2 cells assessed as inhibition of NFKB- or AP-1 mediated E-selectin transcription by luciferase reporter gene assay relative to Dexamethasone; assay type: functional, cell-based
[6] = target: T1, Glucocorticoid receptor; assay: Agonist activity at human GR expressed in NHDF cells assessed as inhibition of IL-6 production by ELISA relative to Dexamethasone; assay type: functional, cell-based
[7] = target: T2, Progesterone receptor (Homo sapiens, UniProt P06401); assay: Binding affinity to PR
T2 sequence (P06401 whole entry): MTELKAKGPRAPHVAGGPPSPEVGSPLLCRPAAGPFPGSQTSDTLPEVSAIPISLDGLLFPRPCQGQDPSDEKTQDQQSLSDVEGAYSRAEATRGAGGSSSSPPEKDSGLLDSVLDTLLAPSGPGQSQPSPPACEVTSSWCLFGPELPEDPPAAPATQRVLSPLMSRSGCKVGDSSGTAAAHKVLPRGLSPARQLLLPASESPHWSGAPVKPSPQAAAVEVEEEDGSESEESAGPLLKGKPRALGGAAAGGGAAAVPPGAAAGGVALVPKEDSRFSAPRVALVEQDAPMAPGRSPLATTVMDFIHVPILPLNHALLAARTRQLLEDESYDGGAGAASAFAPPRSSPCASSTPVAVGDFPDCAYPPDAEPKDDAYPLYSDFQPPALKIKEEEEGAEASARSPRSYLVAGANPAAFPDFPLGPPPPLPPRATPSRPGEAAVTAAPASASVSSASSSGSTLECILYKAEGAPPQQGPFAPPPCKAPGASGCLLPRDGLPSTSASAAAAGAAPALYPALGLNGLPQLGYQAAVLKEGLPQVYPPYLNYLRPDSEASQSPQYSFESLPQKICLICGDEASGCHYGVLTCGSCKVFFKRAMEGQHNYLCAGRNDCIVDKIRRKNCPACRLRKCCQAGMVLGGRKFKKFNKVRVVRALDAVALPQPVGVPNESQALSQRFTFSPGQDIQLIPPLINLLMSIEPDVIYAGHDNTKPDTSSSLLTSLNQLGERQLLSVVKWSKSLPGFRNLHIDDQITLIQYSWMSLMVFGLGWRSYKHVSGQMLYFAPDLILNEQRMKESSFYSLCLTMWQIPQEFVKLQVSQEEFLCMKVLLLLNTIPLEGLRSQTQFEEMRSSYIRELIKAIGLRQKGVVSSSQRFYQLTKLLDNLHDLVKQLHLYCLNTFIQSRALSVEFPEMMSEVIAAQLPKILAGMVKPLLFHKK

[8] = Selectivity ratio of Ki for GR to Ki for PR

Row | half-life [1] [min] | half-life [2] [min] | EC50 [3] [nM] | Ki [4] [nM] | IC50 [5] [nM] | IC50 [6] [nM] | Ki [7] [nM] | Ratio Ki [8] | SMILES
1 | 3.3 | 4.7 |  |  |  |  |  |  | Cc1cc(-c2cccc3cc[nH]c23)c(Cl)c2c1NC(C)(C)[C@H](O)[C@H]2C (racemic)
2 |  |  | 108 | 9 | 21 | > 1000 |  |  | Cc1cc(-c2cccc3cc[nH]c23)cc2c1NC(C)(C)[C@H](O)[C@H]2C (racemic)
3 |  |  | 56 | 2.3 | 5.9 | 7.1 |  |  | Cc1cc(-c2cccc3cc[nH]c23)c(F)c2c1NC(C)(C)[C@H](O)[C@H]2C (racemic)
4 |  |  | 0.9 | 1.2 | 4.7 | 9.3 |  |  | Cc1cc(-c2cccc3cc[nH]c23)c(C)c2c1NC(C)(C)[C@H](O)[C@H]2C (racemic)
5 |  |  | 16 | 11.7 | 15 | > 1000 |  |  | CCc1c(-c2cccc3cc[nH]c23)cc(C)c2c1[C@H](C)[C@@H](O)C(C)(C)N2 (racemic)
6 |  |  | 105 | 319 | 11 | > 1000 |  |  | Cc1cc(-c2cccc3cc[nH]c23)c(/C=N/O)c2c1NC(C)(C)[C@H](O)[C@H]2C (racemic)
7 |  |  | 0.4 | 6.9 | 1.7 | 4.2 |  |  | CO/N=C/c1c(-c2cccc3cc[nH]c23)cc(C)c2c1[C@H](C)[C@@H](O)C(C)(C)N2 (racemic)
8 |  |  | 0.2 | 1.5 | 0.9 | 3.4 |  |  | CCO/N=C/c1c(-c2cccc3cc[nH]c23)cc(C)c2c1[C@H](C)[C@@H](O)C(C)(C)N2 (racemic)
9 |  |  | 34 | 6 | 5.5 | 3.8 |  |  | Cc1cc(-c2cccc3cc[nH]c23)c(/C=N/OC(C)(C)C)c2c1NC(C)(C)[C@H](O)[C@H]2C (racemic)
10 |  |  | 3.7 | 3.5 | 3.1 | 14.4 |  |  | Cc1cc(-c2cccc3cc[nH]c23)c(/C=N/OCc2ccccc2)c2c1NC(C)(C)[C@H](O)[C@H]2C (racemic)
11 |  |  | 40 | 19.6 | > 1000 | > 1000 |  |  | C=Cc1c(-c2cccc3cc[nH]c23)cc(C)c2c1[C@H](C)[C@@H](O)C(C)(C)N2 (racemic)
12 |  |  | 5.7 | 16.6 | 6.5 | 16 |  |  | Cc1cc(-c2cccc3cc[nH]c23)c(/C=C/C#N)c2c1NC(C)(C)[C@H](O)[C@H]2C (racemic)
13 | 13 | 13 | 9.6 | 1.3 | 5.3 | 16 |  |  | Cc1cc(-c2cccc3cc[nH]c23)c(C#N)c2c1NC(C)(C)[C@H](O)[C@H]2C (racemic)
14 |  |  | 112 | 10.4 | 7.8 | > 1000 |  |  | CC(=O)/C=C/c1c(-c2cccc3cc[nH]c23)cc(C)c2c1[C@H](C)[C@@H](O)C(C)(C)N2 (racemic)
15 | 25 | 21 | 36 | 1.8 | 21 | 26 | 190 | > 100 | Cc1c(Cl)c(-c2cccc3cc[nH]c23)cc2c1NC(C)(C)[C@H](O)[C@H]2C (racemic)
16 | 16 | 17 | 40 | 0.9 | 1.7 | 4.1 |  |  | Cc1c(F)c(-c2cccc3cc[nH]c23)cc2c1NC(C)(C)[C@H](O)[C@H]2C (racemic)
17 |  |  | 205 | 38.3 | 42 | > 1000 |  |  | Cc1c(-c2cccc3cc[nH]c23)cc2c(c1C)NC(C)(C)[C@H](O)[C@H]2C (racemic)
18 |  |  | > 1000 | 106 | > 1000 | > 1000 |  |  | Cc1c2c(cc(-c3cccc4cc[nH]c34)c1C(F)(F)F)[C@H](C)[C@@H](O)C(C)(C)N2 (racemic)
19 |  |  | 18 | 3.1 | 13 | > 1000 |  |  | C=Cc1c(-c2cccc3cc[nH]c23)cc2c(c1C)NC(C)(C)[C@H](O)[C@H]2C (racemic)
20 | 3.8 | 15 | 89 | 8 | 17 | 14 |  |  | C[C@H]1c2c(Cl)c(-c3cccc4cc[nH]c34)cc(F)c2NC(C)(C)[C@@H]1O (racemic)
21 |  |  | 11 | 2.4 | 7.7 | 20 |  |  | C[C@H]1c2cc(-c3cccc4cc[nH]c34)c(F)c(F)c2NC(C)(C)[C@@H]1O (racemic)
22 |  |  | 16 | 5 | 3.8 | 19 |  |  | C[C@H]1c2c(F)c(-c3cccc4cc[nH]c34)c(F)c(F)c2NC(C)(C)[C@@H]1O (racemic)
23 |  |  | 1.3 | 1 | 3.9 | 16 |  |  | C[C@H]1c2c(F)c(-c3cccc4cc[nH]c34)c(F)c(Cl)c2NC(C)(C)[C@@H]1O (racemic)
24 |  |  | 480 | 157 | 301 | > 1000 |  |  | C[C@H]1c2c(cc(Cl)c(-c3cccc4cc[nH]c34)c2Cl)NC(C)(C)[C@@H]1O (racemic)
